Each compound was assayed against T1, hCRTH2 (Homo sapiens, UniProt Q9Y5Y4) (assay: Radioligand binding assay ([3H]PGD2 competition, HEK-hCRTH2 membranes)). Conditions: [3H]PGD2 binding, rated A-E (Table A).
T1 construct: expressed in transfected cells; host or cells: HEK (human embryonic kidney) cells expressing hCRTH2; membrane preparation
T1 sequence (Q9Y5Y4 1-395): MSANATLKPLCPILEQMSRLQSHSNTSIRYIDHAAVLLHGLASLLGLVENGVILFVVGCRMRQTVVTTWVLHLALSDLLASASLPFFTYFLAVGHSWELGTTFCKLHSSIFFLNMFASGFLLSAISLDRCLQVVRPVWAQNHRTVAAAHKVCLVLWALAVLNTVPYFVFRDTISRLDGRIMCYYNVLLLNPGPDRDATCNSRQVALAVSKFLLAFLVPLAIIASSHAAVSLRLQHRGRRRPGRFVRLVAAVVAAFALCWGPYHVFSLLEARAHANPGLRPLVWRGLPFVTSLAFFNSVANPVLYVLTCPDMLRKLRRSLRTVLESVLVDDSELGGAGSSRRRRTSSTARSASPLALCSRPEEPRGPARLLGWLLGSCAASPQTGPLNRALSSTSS
Description: Biological Assays Radioligand Binding Assay.
Radioligand binding assays were performed at room temperature in 50 mM Tris-HCl pH 7.4, 1 mM EDTA containing 2 mM MnCl2 and 3.0 nM [^3H]PGD2 (New England Nuclear, Boston, Mass.) (171 Ci mmol^−1), in a final volume of 0.2 mL. Competing ligands were diluted in dimethylsulfoxide (Me2SO) that was kept constant at 1% (v/v) of the final incubation volume. The reaction was initiated by the addition of 8-20 μg of membrane protein prepared from a human embryonic kidney (HEK)-hCRTH2 cell line. Total and non-specific binding were determined in the absence and the presence of 10 μM PGD2, respectively. […] The reaction was routinely conducted for 60 min at room temperature and terminated by rapid filtration through prewetted (0.3% polyethyleneimine) 96-well printed Filtermate™ (Wallac) using a Tomtec® harvester (Hamden, Conn.). After washing with cold buffer, the filter was dried for 2 minutes in microwave, and Meltilex Scintillator sheet (Wallac) was melted on for 2 min. The radioactivity was measured with Betaplate model 1205 (Wallac).

`O=C(O)CCCCc1nc2cc(C(=O)N3CCCC3c3ccccc3)ccc2nc1-c1ccccc1` (centres unmarked) [15AL, 5-{3-phenyl-7-[(2-phenylpyrrolidin-1-yl)carbonyl]quinoxalin-2-yl}pentanoic acid] and `O=C(O)CCCCc1nc2cc(C(=O)N3CCC(c4ccccc4)CC3)ccc2nc1-c1ccccc1` [15Ai, 5-{3-phenyl-7-[(4-phenylpiperidin-1-yl)carbonyl]quinoxalin-2-yl}pentanoic acid] fall in the same range of Ki: 0.1 to 2 nM for the first, 0.1 to 2 nM for the second.

`O=C(O)CCCCc1nc2cc(C(=O)NC3(c4ccccc4)CCC3)ccc2nc1-c1ccccc1` [15AM, 5-{3-phenyl-7-[(1-phenylcyclobutyl)carbamoyl]quinoxalin-2-yl}pentanoic acid] and `C[C@H](NC(=O)c1ccc2nc(-c3ccccc3)c(CCCCC(=O)O)nc2c1)c1ccccc1` [15B, 5-(3-phenyl-7-{[(1S)-1-phenylethyl]carbamoyl}quinoxalin-2-yl) pentanoic acid] fall in the same range of Ki: 2.1 to 20 nM for the first, 2.1 to 20 nM for the second.

`O=C(O)CCCCc1nc2cc(C(=O)N3CCN(c4ccccc4)CC3)ccc2nc1-c1ccccc1` [15AN, 5-{3-phenyl-7-[(4-phenylpiperazin-1-yl)carbonyl]quinoxalin-2-yl}pentanoic acid] and `O=C(O)CCCCc1nc2cc(C(=O)N3CCc4ccccc4C3)ccc2nc1-c1ccccc1` [15AP, 5-[7-(3,4-dihydroisoquinolin-2(1H)-ylcarbonyl)-3-phenylquinoxalin-2-yl]pentanoic acid] fall in the same range of Ki: 2.1 to 20 nM for the first, 2.1 to 20 nM for the second.

First: O=C(O)CCCCc1nc2cc(C(=O)NC3c4ccccc4CC3O)ccc2nc1-c1ccccc1 (centres unmarked) [15AQ, 5-{7-[(2-hydroxy-2,3-dihydro-1H-inden-1-yl)carbamoyl]-3-phenylquinoxalin-2-yl}pentanoic acid]
Second: O=C(O)CCCCc1nc2cc(C(=O)NC3CCc4ccccc43)ccc2nc1-c1ccccc1 (centres unmarked) [15AT, 5-[7-(2,3-dihydro-1H-inden-1-ylcarbamoyl)-3-phenylquinoxalin-2-yl]pentanoic acid]
The Ki of the first is higher: 2.1 to 20 nM for the first, 0.1 to 2 nM for the second. The second binds more tightly here.

`O=C(O)CCCCc1nc2cc(C(=O)NC3CCCc4ccccc43)ccc2nc1-c1ccccc1` (centres unmarked) [15AR, 5-[3-phenyl-7-(1,2,3,4-tetrahydronaphthalen-1-ylcarbamoyl)quinoxalin-2-yl]pentanoic acid] and `O=C(O)CCCCc1nc2cc(C(=O)NC3Cc4ccccc4C3)ccc2nc1-c1ccccc1` [15BK, 5-[7-(2,3-dihydro-1H-inden-2-ylcarbamoyl)-3-phenylquinoxalin-2-yl]pentanoic acid] fall in the same range of Ki: 0.1 to 2 nM for the first, 0.1 to 2 nM for the second.

`CCNC(=O)c1ccc2nc(-c3ccccc3)c(CCCCC(=O)O)nc2c1` [15AS, 5-[7-(ethylcarbamoyl)-3-phenylquinoxalin-2-yl]pentanoic acid] and `CNC(=O)c1ccc2nc(-c3ccccc3)c(CCCCC(=O)O)nc2c1` [15BG, 5-[7-(methylcarbamoyl)-3-phenylquinoxalin-2-yl]pentanoic acid] fall in the same range of Ki: 2.1 to 20 nM for the first, 2.1 to 20 nM for the second.

`COc1ccc(C(C)NC(=O)c2ccc3nc(-c4ccccc4)c(CCCCC(=O)O)nc3c2)cc1` (centres unmarked) [15AU, 5-(7-{[1-(4-methoxyphenyl)ethyl]carbamoyl}-3-phenyl-quinoxalin-2-yl) pentanoic acid] and `Cc1ccc([C@@H](C)NC(=O)c2ccc3nc(-c4ccccc4)c(CCCCC(=O)O)nc3c2)cc1` [15AY, 5-(7-{[(1R)-1-(4-methylphenyl)ethyl]carbamoyl}-3-phenyl-quinoxalin-2-yl)pentanoic acid] fall in the same range of Ki: 2.1 to 20 nM for the first, 2.1 to 20 nM for the second.

`O=C(O)CCCCc1nc2cc(C(=O)NCc3ccc(OC(F)(F)F)cc3)ccc2nc1-c1ccccc1` [15AV, 5-(3-phenyl-7-{[4-(trifluoromethoxy)benzyl]carbamoyl}quinoxalin-2-yl)pentanoic acid] and `COc1ccc(CNC(=O)c2ccc3nc(-c4ccccc4)c(CCCCC(=O)O)nc3c2)cc1` [15BA, 5-{7-[(4-methoxybenzyl)carbamoyl]-3-phenylquinoxalin-2-yl}pentanoic acid] fall in the same range of Ki: 0.1 to 2 nM for the first, 0.1 to 2 nM for the second.

First: Cc1ccc(CNC(=O)c2ccc3nc(-c4ccccc4)c(CCCCC(=O)O)nc3c2)cc1 [15AW, 5-{7-[(4-methylbenzyl)carbamoyl]-3-phenylquinoxalin-2-yl}pentanoic acid]
Second: CCc1ccc(CNC(=O)c2ccc3nc(-c4ccccc4)c(CCCCC(=O)O)nc3c2)cc1 [15AZ, 5-{7-[(4-ethylbenzyl)carbamoyl]-3-phenylquinoxalin-2-yl}pentanoic acid]
The Ki of the first is lower: 0.1 to 2 nM for the first, 2.1 to 20 nM for the second. The first binds more tightly here.

`C[C@@H](NC(=O)c1ccc2nc(-c3ccccc3)c(CCCCC(=O)O)nc2c1)c1ccc(Cl)cc1` [15AX, 5-(7-{[(1R)-1-(4-chlorophenyl)ethyl]carbamoyl}-3-phenyl-quinoxalin-2-yl)pentanoic acid] and `C[C@H](NC(=O)c1ccc2nc(-c3ccccc3)c(CCCCC(=O)O)nc2c1)c1ccc(Cl)cc1` [15BM, 5-(7-{[(1S)-1-(4-chlorophenyl)ethyl]carbamoyl}-3-phenylquinoxalin-2-yl)pentanoic acid] fall in the same range of Ki: 2.1 to 20 nM for the first, 2.1 to 20 nM for the second.

Compared with `CN(Cc1ccccc1)C(=O)c1ccc2nc(-c3ccccc3)c(CCCCC(=O)O)nc2c1` [15Ao, 5-{7-[benzyl(methyl)carbamoyl]-3-phenylquinoxalin-2-yl}pentanoic acid], `CON(C)C(=O)c1ccc2nc(-c3ccccc3)c(CCCCC(=O)O)nc2c1` [15BJ, 5-{7-[methoxy(methyl)carbamoyl]-3-phenylquinoxalin-2-yl}pentanoic acid] is higher in Ki: 0.1 to 2 nM for the first, 2.1 to 20 nM for the second.

First: N#Cc1ccc(CNC(=O)c2ccc3nc(-c4ccccc4)c(CCCCC(=O)O)nc3c2)cc1 [15BB, 5-{7-[(4-cyanobenzyl)carbamoyl]-3-phenylquinoxalin-2-yl}pentanoic acid]
Second: O=C(O)CCCCc1nc2cc(C(=O)NCc3cccc(Cl)n3)ccc2nc1-c1ccccc1 [15BU, 5-(7-{[(6-chloropyridin-2-yl)methyl]carbamoyl}-3-phenylquinoxalin-2-yl)pentanoic acid]
The Ki of the first is higher: 2.1 to 20 nM for the first, 0.1 to 2 nM for the second. The second binds more tightly here.

`Cc1ccc([C@H](C)NC(=O)c2ccc3nc(-c4ccccc4)c(CCCCC(=O)O)nc3c2)cc1` [15BC, 5-(7-{[(1S)-1-(4-methylphenyl)ethyl]carbamoyl}-3-phenylquinoxalin-2-yl)pentanoic acid] and `CC(NC(=O)c1ccc2nc(-c3ccccc3)c(CCCCC(=O)O)nc2c1)c1ccc(OC(F)(F)F)cc1` (centres unmarked) [15BD, 5-[3-phenyl-7-({1-[4-(trifluoromethoxy)phenyl]ethyl}carbamoyl)quinoxalin-2-yl] pentanoic acid] fall in the same range of Ki: 2.1 to 20 nM for the first, 2.1 to 20 nM for the second.

`O=C(O)CCCCc1nc2cc(C(=O)N3CCCC3)ccc2nc1-c1ccccc1` [15BE, 5-[3-phenyl-7-(pyrrolidin-1-ylcarbonyl)quinoxalin-2-yl]pentanoic aicd] and `O=C(O)CCCCc1nc2cc(C(=O)N3CCCCC3)ccc2nc1-c1ccccc1` [15BF, 5-[3-phenyl-7-(piperidin-1-ylcarbonyl)quinoxalin-2-yl] pentanoic acid] fall in the same range of Ki: 2.1 to 20 nM for the first, 2.1 to 20 nM for the second.

Compared with `CC(NC(=O)c1ccc2nc(-c3ccccc3)c(CCCCC(=O)O)nc2c1)c1ccccc1F` (centres unmarked) [15BH, 5-(7-{[1-(2-fluorophenyl)ethyl]carbamoyl}-3-phenylquinoxalin-2-yl)pentanoic acid], `C[C@@H](NC(=O)c1ccc2nc(-c3ccccc3)c(CCCCC(=O)O)nc2c1)c1ccccc1C(F)(F)F` [15BL, 5-[3-phenyl-7-({(1R)-1-[2-(trifluoromethyl)phenyl]ethyl}carbamoyl)quinoxalin-2-yl]pentanoic acid] is higher in Ki: 2.1 to 20 nM for the first, 20.1 to 200 nM for the second.

First: O=C(O)CCCCc1nc2cc(C(=O)NCCCN3CCCC3=O)ccc2nc1-c1ccccc1 [15BN, 5-(7-{[3-(2-oxopyrrolidin-1-yl)propyl]carbamoyl}-3-phenylquinoxalin-2-yl)pentanoic acid]
Second: O=C(O)CCCCc1nc2cc(C(=O)NCc3cc(Cl)ccn3)ccc2nc1-c1ccccc1 [15BT, 5-(7-{[(4-chloropyridin-2-yl)methyl]carbamoyl}-3-phenylquinoxalin-2-yl)pentanoic acid]
The Ki of the first is higher: 2.1 to 20 nM for the first, 0.1 to 2 nM for the second.

Compared with `Cc1cn(C2CCN(C(=O)c3ccc4nc(-c5ccccc5)c(CCCCC(=O)O)nc4c3)CC2)nn1` [15BQ, 5-(7-{[4-(4-methyl-1H-1,2-3-triazol-1-yl)piperidin-1-yl]carbonyl}-3-phenylquinoxalin-2-yl) pentanoic acid], `Cc1cnnn1C1CCN(C(=O)c2ccc3nc(-c4ccccc4)c(CCCCC(=O)O)nc3c2)CC1` [15BR, 5-(7-{[4-(5-methyl-1H-1,2,3-triazol-1-yl)piperidin-1-yl]carbonyl}-3-phenylquinoxalin-2-yl)pentanoic acid] is lower in Ki: 2.1 to 20 nM for the first, 0.1 to 2 nM for the second. The second binds more tightly here.

`O=C(O)CCCCc1nc2cc(C(=O)N3CCC(c4cnccn4)CC3)ccc2nc1-c1ccccc1` [15BS, 5-{3-phenyl-7-[(4-pyrazin-2-ylpiperidin-1-yl)carbonyl]quinoxalin-2-yl}pentanoic acid] gave a Ki of 2.1 to 20 nM.

Same assay, conditions: [3H]PGD2 binding, values in text

`O=C(O)CCCCc1nc2cc(C(=O)NC3CCCc4ccccc43)ccc2nc1-c1ccccc1` (centres unmarked) [15AR, 5-[3-phenyl-7-(1,2,3,4-tetrahydronaphthalen-1-ylcarbamoyl)quinoxalin-2-yl]pentanoic acid] and `O=C(O)CCCCc1nc2cc(C(=O)N3CCC(c4ccccc4)CC3)ccc2nc1-c1ccccc1` [15Ai, 5-{3-phenyl-7-[(4-phenylpiperidin-1-yl)carbonyl]quinoxalin-2-yl}pentanoic acid] are within 1.5-fold of each other in Ki: 1.6 nM for the first, 1.9 nM for the second.

Going from `C[C@@H](NC(=O)c1ccc2nc(-c3ccccc3)c(CCCCC(=O)O)nc2c1)c1ccc(Cl)cc1` [15AX, 5-(7-{[(1R)-1-(4-chlorophenyl)ethyl]carbamoyl}-3-phenyl-quinoxalin-2-yl)pentanoic acid] to `C[C@@H](NC(=O)c1ccc2nc(-c3ccccc3)c(CCCCC(=O)O)nc2c1)c1ccccc1C(F)(F)F` [15BL, 5-[3-phenyl-7-({(1R)-1-[2-(trifluoromethyl)phenyl]ethyl}carbamoyl)quinoxalin-2-yl]pentanoic acid], the Ki rises from 3 nM to 69.9 nM (23-fold).

First: CN(Cc1ccccc1)C(=O)c1ccc2nc(-c3ccccc3)c(CCCCC(=O)O)nc2c1 [15Ao, 5-{7-[benzyl(methyl)carbamoyl]-3-phenylquinoxalin-2-yl}pentanoic acid]
Second: Cc1cnnn1C1CCN(C(=O)c2ccc3nc(-c4ccccc4)c(CCCCC(=O)O)nc3c2)CC1 [15BR, 5-(7-{[4-(5-methyl-1H-1,2,3-triazol-1-yl)piperidin-1-yl]carbonyl}-3-phenylquinoxalin-2-yl)pentanoic acid]
The Ki of the first is 10-fold higher: 1 nM for the first, 0.1 nM for the second.

— patent US9469615B2, “Quinoxalines and AZA-quinoxalines as CRTH2 receptor modulators” (Merck Sharp & Dohme Corp., priority 2010, dated 2016)
